Laboratory results taken from patent US10849976B2, “Compositions and methods for protecting saponin activity” (SarTec Corporation, priority 2016, dated 2020).
Where two headings read alike, the source gives them in different places.

Tested on: glucose oxidase
Excerpt: In addition, a saponin molecule has a few to several glucose units bonded to it, depending on the exact plant from which the saponin is extracted. Each glucose unit bonded to the saponin may have up to four more hydroxy (—OH) groups attached and pointing outward from the glucose ring into the water solution. Glucose concentrations can be measured by an assay that depends on glucose oxidase acting upon glucose. However, glucose oxidase is prevented from acting upon glucose if borate is effectively bound to glucose. Thus, observing a declining amount of glucose as measured using a glucose oxidase based assay is indicative of borate binding to glucose, which in turn, serves as another indication of the efficacy of the saponin-protective agent.
A standard glucose solution was prepared by weighing about 0.9 g of glucose and 0.450 g of NaCl into a 500.0 mL volumetric flask. Reverse osmosis water was added while mixing the reagents to reach the 500 mL total volume. Next, a 40.0 mL portion of the standard glucose solution was added to a 50 mL vial and 0.106 g of sodium borate was successively added resulting in a molar ratio of borate:glucose in a range of 1:1 to 6:1. Glucose levels were measured using a OneTouch Ultra 2 blood glucose meter.
The glucose level for the standard glucose/saline solution was taken both before and after the borate-containing glucose solutions were measured for glucose concentration.

Compound: O=BOB(O)OB(O)OB=O [Sodium Borate, sodium borate]
- Protection of glucose from oxidation by glucose oxidase (3:1 borate:glucose molar ratio): effectively entirely protected
- Glucose Meter Reading (Borate:Glucose molar ratio 1:1, 0.106 sodium borate added): 106 mg/dL
- Glucose Meter Reading (Borate:Glucose molar ratio 2:1, 0.212 sodium borate added): 38 mg/dL
- Glucose Meter Reading (Borate:Glucose molar ratio 3:1, 0.318 sodium borate added): “Low Glucose < 20 mg/dL”
- Glucose Meter Reading (Borate:Glucose molar ratio 6:1, 0.636 sodium borate added): “Error 4”
